Earlier results as cited in US6299888A, “Azelastine hydrochloride-containing percutaneous preparation having good percutaneous absorbability and reduced skin irritation” (Teikoku Seiyaku Kabushiki Kaisha, priority 1997, dated 2001).
Where a name gives a salt, the structure may show the parent alone.

CN1CCCC(n2nc(Cc3ccc(Cl)cc3)c3ccccc3c2=O)CC1 (stereo not shown) [azelastine hydrochloride]
dissociation constant (pKa): about 9.5
